| logP | SMILES |
| --- | --- |
| 8.56 | CCCCCCCCC(CCCC)c1ccccc1 (configuration not stated) |
| 8.1 | CCCCCCCCCC(CC)c1ccccc1 (configuration not stated) |
| 7.53 | CCCCCCCCC(CC)c1ccccc1 (configuration not stated) |
| 9.29 | CCCCCCCCCCCCC(C)c1ccccc1 (configuration not stated) |
| 9.16 | CCCCCCCCCC(CCCC)c1ccccc1 (configuration not stated) |
| 7 | CCCCCCCC(CC)c1ccccc1 (configuration not stated) |
| 7.45 | CCCCCCC(CCCC)c1ccccc1 (configuration not stated) |
| 8.65 | CCCCCCCCCCCCc1ccccc1 |
| 8.62 | CCCCCCCCCC(CCC)c1ccccc1 (configuration not stated) |
| 7.59 | CCCCCCCC(CCC)c1ccccc1 (configuration not stated) |
| 9.25 | CCCCCCCCCCC(CCC)c1ccccc1 (configuration not stated) |
| 8.01 | CCCCCCC(CCCCC)c1ccccc1 (configuration not stated) |
| 8.65 | CCCCCCCCCCC(CC)c1ccccc1 (configuration not stated) |
| 6.9 | CCCCCC(CCCC)c1ccccc1 (configuration not stated) |
| 9.36 | CCCCCCCCCCCCCc1ccccc1 |
| 8.01 | CCCCCCCC(CCCC)c1ccccc1 (configuration not stated) |
| 7 | CCCCCCC(CCC)c1ccccc1 (configuration not stated) |
| 8.07 | CCCCCCCCC(CCC)c1ccccc1 (configuration not stated) |
| 8.14 | CCCCCCCCCCCc1ccccc1 |
| 8.56 | CCCCCCCC(CCCCC)c1ccccc1 (configuration not stated) |
| 9.16 | CCCCCCCCC(CCCCC)c1ccccc1 (configuration not stated) |
| 7.45 | CCCCCC(CCCCC)c1ccccc1 |
| 9.29 | CCCCCCCCCCCC(CC)c1ccccc1 (configuration not stated) |

| SMILES | logP |
| --- | --- |
| CCCCCCCCCCC(C)c1ccccc1 (configuration not stated) | 8.19 |
| CCCCCCCCCCCC(C)c1ccccc1 (configuration not stated) | 8.77 |
| CCCCCCCCCC(C)c1ccccc1 (configuration not stated) | 7.63 |
| CCCCCCCCC(C)c1ccccc1 (configuration not stated) | 7.06 |

From the OPERA property sets (Mansouri et al. 2018)
